Laboratory results published in US20250051300A1, “GRAM-NEGATIVE SPECIFIC ANTIBIOTICS SPARING EFFECT ON GUT MICROBIOME” (THE BOARD OF TRUSTEES OF THE UNIVERSITY OF ILLINOIS, priority 2021, published 2025).
Values after ≈ are worked out from the molar mass of the structure shown.

Assays:
Enterococcus faecalis = assay: MIC, micro-dilution broth method (CLSI); type: cell-based; conditions: Enterococcus faecalis KLE 2341, BHI-ych; read-out: MIC
Bacteroides fragilis = assay: MIC, gut commensal bacteria, micro-dilution broth; conditions: Bacteroides fragilis, ATCC25285
Bacteroides vulgatus = assay: MIC, gut commensal bacteria, micro-dilution broth; conditions: Phocaeicola vulgatus
[1] = tested on: Bacteroides cellulosilyticus; assay: MIC, gut commensal bacteria, micro-dilution broth; conditions: Bacteroides cellulosilyticus
[2] = tested on: Stenotrophomonas maltophilia; assay: MIC, gut commensal bacteria, micro-dilution broth; conditions: Stenotrophomonas maltophilia, ATCC13637
[3] = tested on: Faecalibacterium prausnitzii; assay: MIC, gut commensal bacteria, micro-dilution broth; conditions: Faecalibacterium prausnitzii, ATCC27768
Morganella morganii = assay: MIC, gut commensal bacteria, micro-dilution broth; conditions: ATCC25839
Proteus mirabilis = assay: MIC, gut commensal bacteria, micro-dilution broth; conditions: Proteus mirabilis, ATCC35659
Streptococcus salivarius = assay: MIC, gut commensal bacteria, micro-dilution broth; conditions: Streptococcus salivarius
[4] = tested on: Streptococcus parasanguinis; assay: MIC, gut commensal bacteria, micro-dilution broth; conditions: Streptococcus parasanguinis
Bifidobacterium longum = assay: MIC, gut commensal bacteria, micro-dilution broth; conditions: Bifidobacterium longum, ATCCBAA999
Lactobacillus reuteri = assay: MIC, gut commensal bacteria, micro-dilution broth; conditions: Limosilactobacillus reuteri, ATCC23272
Blautia producta = assay: MIC, gut commensal bacteria, micro-dilution broth; conditions: Blautia producta, ATCC27340
gut microbiome = assay: Impact on murine fecal microbiome (16S rRNA sequencing); conditions: oral gavage twice a day for three days; feces at days 0, 7, 10, 31
Escherichia coli = assay: MIC, micro-dilution broth method (CLSI); type: cell-based
Klebsiella pneumoniae = assay: MIC, micro-dilution broth method (CLSI); type: cell-based
Enterobacter cloacae = assay: MIC, micro-dilution broth method (CLSI); type: cell-based

Molecule: CC1(C)S[C@@H]2[C@H](NC(=O)[C@H](N)c3ccc(O)cc3)C(=O)N2[C@H]1C(=O)O [Amoxicillin]
- MIC (Enterococcus faecalis): 0.25 µg/mL (≈ 0.684 µM)
- MIC (Bacteroides fragilis): 128 µg/mL (≈ 350 µM)
- MIC (Bacteroides vulgatus): 2 µg/mL (≈ 5.47 µM)
- MIC [1]: > 128 µg/mL
- MIC [2]: > 128 µg/mL
- MIC [3]: 64 µg/mL (≈ 175 µM)
- MIC (Morganella morganii): 32 µg/mL (≈ 87.6 µM)
- MIC (Proteus mirabilis): 0.008 µg/mL (≈ 0.0219 µM)
- MIC (Streptococcus salivarius): 0.125 µg/mL (≈ 0.342 µM)
- MIC [4]: 64 µg/mL (≈ 175 µM)
- MIC (Bifidobacterium longum): 1 µg/mL (≈ 2.74 µM)
- MIC (Lactobacillus reuteri): 1 µg/mL (≈ 2.74 µM)
- MIC (Blautia producta): 1 µg/mL (≈ 2.74 µM)
- effect on gut microbiome taxonomic composition (gut microbiome): increases in members of Bacteroidia

Molecule: Colistin
- MIC (Escherichia coli; E. coli AR0048): 0.5 µg/mL
- MIC (Escherichia coli; E. coli AR0055): 1 µg/mL
- MIC (Escherichia coli; E. coli AR0058): 0.5 µg/mL
- MIC (Escherichia coli; E. coli AR0061): 0.5 µg/mL
- MIC (Escherichia coli; E. coli AR0067): 1 µg/mL
- MIC (Escherichia coli; E. coli AR0069): 0.5 µg/mL
- MIC (Escherichia coli; E. coli AR0077): 0.5 µg/mL
- MIC (Escherichia coli; E. coli AR0081): 0.5 µg/mL
- MIC (Escherichia coli; E. coli AR0084): 0.5 µg/mL
- MIC (Escherichia coli; E. coli AR0085): 0.5 µg/mL
- MIC (Escherichia coli; E. coli AR0086): 0.5 µg/mL
- MIC (Escherichia coli; E. coli AR0089): 0.5 µg/mL
- MIC (Escherichia coli; E. coli AR0104): 0.5 µg/mL
- MIC (Escherichia coli; E. coli AR0114): 0.25 µg/mL
- MIC (Escherichia coli; E. coli AR0118): 0.5 µg/mL
- MIC (Escherichia coli; E. coli AR0119): 0.5 µg/mL
- MIC (Escherichia coli; E. coli AR0128): 0.5 µg/mL
- MIC (Escherichia coli; E. coli AR0137): 1 µg/mL
- MIC (Escherichia coli; E. coli AR0149): 0.5 µg/mL
- MIC (Escherichia coli; E. coli AR0150): 0.5 µg/mL
- MIC (Escherichia coli; E. coli AR0151): 0.5 µg/mL
- MIC (Escherichia coli; E. coli AR0162): 0.5 µg/mL
- MIC (Escherichia coli; E. coli AR0346): 4 µg/mL
- MIC (Escherichia coli; E. coli AR0348): 0.25 µg/mL
- MIC (Escherichia coli; E. coli AR0350): 4 µg/mL
- MIC (Escherichia coli; E. coli AR0493): 8 µg/mL
- MIC (Escherichia coli; E. coli AR0494): 8 µg/mL
- MIC (Escherichia coli; E. coli AR0495): 4 µg/mL
- MIC (Escherichia coli; E. coli AR0541): 0.5 µg/mL
- MIC (Escherichia coli; E. coli AR0543): 0.5 µg/mL
- MIC (Escherichia coli; E. coli AR0546): 0.5 µg/mL
- MIC (Escherichia coli; E. coli AR0551): 0.5 µg/mL
- MIC (Escherichia coli; E. coli AR0559): 0.5 µg/mL
- MIC (Escherichia coli; E. coli AR-0349 (colistin-resistant clinical isolate)): 8 µg/mL
- MIC (Escherichia coli; E. coli AR-0549): 0.25 µg/mL
- MIC (Escherichia coli; E. coli ATCC BAA-2340): 0.25 µg/mL
- MIC (Escherichia coli; E. coli ATCC BAA-2469): 0.25 µg/mL
- MIC (Escherichia coli; E. coli ATCC BAA-2471): 0.25 µg/mL
- MIC (Escherichia coli; E. coli ELZ 4004): 0.25 µg/mL
- MIC (Escherichia coli; E. coli ELZ 4017): 0.25 µg/mL
- MIC (Escherichia coli; E. coli ELZ 4042): 0.25 µg/mL
- MIC (Escherichia coli; E. coli ELZ 4072): 0.25 µg/mL
- MIC (Escherichia coli; E. coli ELZ 4081): 0.25 µg/mL
- MIC (Escherichia coli; E. coli ELZ 4139): 0.25 µg/mL
- MIC (Escherichia coli; E. coli ELZ 4239): 0.25 µg/mL
- MIC (Escherichia coli; E. coli ELZ 4277): 0.25 µg/mL
- MIC (Escherichia coli; E. coli ELZ 4346): 0.25 µg/mL
- MIC (Klebsiella pneumoniae; K. pneumoniae AR0034): 0.5 µg/mL
- MIC (Klebsiella pneumoniae; K. pneumoniae AR0039): 0.5 µg/mL
- MIC (Klebsiella pneumoniae; K. pneumoniae AR0041): 0.5 µg/mL
- MIC (Klebsiella pneumoniae; K. pneumoniae AR0042): 0.5 µg/mL
- MIC (Klebsiella pneumoniae; K. pneumoniae AR0043): 0.5 µg/mL
- MIC (Klebsiella pneumoniae; K. pneumoniae AR0044): 0.5 µg/mL
- MIC (Klebsiella pneumoniae; K. pneumoniae AR0046): 4 µg/mL
- MIC (Klebsiella pneumoniae; K. pneumoniae AR0047): 4 µg/mL
- MIC (Klebsiella pneumoniae; K. pneumoniae AR0049): 0.5 µg/mL
- MIC (Klebsiella pneumoniae; K. pneumoniae AR0066): 1 µg/mL
- MIC (Klebsiella pneumoniae; K. pneumoniae AR0068): 0.5 µg/mL
- MIC (Klebsiella pneumoniae; K. pneumoniae AR0075): 0.5 µg/mL
- MIC (Klebsiella pneumoniae; K. pneumoniae AR0076): 0.5 µg/mL
- MIC (Klebsiella pneumoniae; K. pneumoniae AR0079): 0.5 µg/mL
- MIC (Klebsiella pneumoniae; K. pneumoniae AR0080): 0.5 µg/mL
- MIC (Klebsiella pneumoniae; K. pneumoniae AR0087): 4 µg/mL
- MIC (Klebsiella pneumoniae; K. pneumoniae AR0098): <0.25 µg/mL
- MIC (Klebsiella pneumoniae; K. pneumoniae AR0106): 4 µg/mL
- MIC (Klebsiella pneumoniae; K. pneumoniae AR0107): <0.25 µg/mL
- MIC (Klebsiella pneumoniae; K. pneumoniae AR0109): >8 µg/mL
- MIC (Klebsiella pneumoniae; K. pneumoniae AR0112): 0.5 µg/mL
- MIC (Klebsiella pneumoniae; K. pneumoniae AR0113): 0.5 µg/mL
- MIC (Klebsiella pneumoniae; K. pneumoniae AR0115): 0.5 µg/mL
- MIC (Klebsiella pneumoniae; K. pneumoniae AR0117): 1 µg/mL
- MIC (Klebsiella pneumoniae; K. pneumoniae AR0120): 0.5 µg/mL
- MIC (Klebsiella pneumoniae; K. pneumoniae AR0125): >4 µg/mL
- MIC (Klebsiella pneumoniae; K. pneumoniae AR0126): 0.5 µg/mL
- MIC (Klebsiella pneumoniae; K. pneumoniae AR0129): 0.5 µg/mL
- MIC (Klebsiella pneumoniae; K. pneumoniae AR0135): 0.5 µg/mL
- MIC (Klebsiella pneumoniae; K. pneumoniae AR0138): 2 µg/mL
- MIC (Klebsiella pneumoniae; K. pneumoniae AR0139): 2 µg/mL
- MIC (Klebsiella pneumoniae; K. pneumoniae AR0140): 0.5 µg/mL
- MIC (Klebsiella pneumoniae; K. pneumoniae AR0141): 1 µg/mL
- MIC (Klebsiella pneumoniae; K. pneumoniae AR0142): 0.5 µg/mL
- MIC (Klebsiella pneumoniae; K. pneumoniae AR0143): 1 µg/mL
- MIC (Klebsiella pneumoniae; K. pneumoniae AR0145): 0.5 µg/mL
- MIC (Klebsiella pneumoniae; K. pneumoniae AR0146): 0.5 µg/mL
- MIC (Klebsiella pneumoniae; K. pneumoniae AR0148): 1 µg/mL
- MIC (Klebsiella pneumoniae; K. pneumoniae AR0152): 0.5 µg/mL
- MIC (Klebsiella pneumoniae; K. pneumoniae AR0153): 0.5 µg/mL
- MIC (Klebsiella pneumoniae; K. pneumoniae AR0158): 0.5 µg/mL
- MIC (Klebsiella pneumoniae; K. pneumoniae AR0160): 1 µg/mL
- MIC (Klebsiella pneumoniae; K. pneumoniae AR0347): <0.25 µg/mL
- MIC (Klebsiella pneumoniae; K. pneumoniae AR0542): >8 µg/mL
- MIC (Klebsiella pneumoniae; K. pneumoniae AR0548): 0.5 µg/mL
- MIC (Klebsiella pneumoniae; K. pneumoniae AR0550): <0.25 µg/mL
- MIC (Klebsiella pneumoniae; K. pneumoniae AR0552): 0.5 µg/mL
- MIC (Klebsiella pneumoniae; K. pneumoniae AR0553): 0.5 µg/mL
- MIC (Klebsiella pneumoniae; K. pneumoniae AR0554): 0.5 µg/mL
- MIC (Klebsiella pneumoniae; K. pneumoniae AR0555): 0.5 µg/mL
- MIC (Klebsiella pneumoniae; K. pneumoniae AR-0040): 8 µg/mL
- MIC (Enterobacter cloacae; E. cloacae AR0032): 0.5 µg/mL
- MIC (Enterobacter cloacae; E. cloacae AR0038): 0.5 µg/mL
- MIC (Enterobacter cloacae; E. cloacae AR0050): 0.25 µg/mL
- MIC (Enterobacter cloacae; E. cloacae AR0053): 0.5 µg/mL
- MIC (Enterobacter cloacae; E. cloacae AR0060): 0.5 µg/mL
- MIC (Enterobacter cloacae; E. cloacae AR0065): 0.5 µg/mL
- MIC (Enterobacter cloacae; E. cloacae AR0072): 1 µg/mL
- MIC (Enterobacter cloacae; E. cloacae AR0073): 8 µg/mL
- MIC (Enterobacter cloacae; E. cloacae AR0093): 0.5 µg/mL
- MIC (Enterobacter cloacae; E. cloacae AR0132): 1 µg/mL
- MIC (Enterobacter cloacae; E. cloacae AR0136): 0.5 µg/mL
- MIC (Enterobacter cloacae; E. cloacae AR0154): 0.5 µg/mL
- MIC (Enterobacter cloacae; E. cloacae AR0164): 0.5 µg/mL
- MIC (Enterobacter cloacae; E. cloacae AR0544): 0.25 µg/mL
- MIC (Enterobacter cloacae; E. cloacae AR0545): 0.5 µg/mL
- MIC (Enterobacter cloacae; E. cloacae AR-0163): 16 µg/mL
- MIC (Enterobacter cloacae; E. cloacae ATCC BAA-2341): 0.5 µg/mL
- MIC (Enterobacter cloacae; E. cloacae ATCC BAA-2468): 0.25 µg/mL
